According to US20120214818A1, “METHODS OF TREATING DIASTOLIC DYSFUNCTION AND RELATED CONDITIONS” (THE BOARD OF TRUSTEES OF THE UNIVERSITY OF ILLINOIS, priority 2009, published 2012):
Where “and” joins values, the source holds several entries; their conditions need not be identical. Identical values can stand only once.

Key:
DOCA-salt and sham mice = assay: Noninvasive echocardiographic assessment of diastolic dysfunction, acute ranolazine; assay type: in vivo, mouse; settings: 30 mg/kg ranolazine intraperitoneal; for E/A, early to late diastolic filling velocity / E/E′ / E′, early septal mitral annulus velocity (TDI) / E′/A′ / Sm, systolic septal mitral annulus velocity (TDI): 30 min; for EF, ejection fraction (Table 3) / FS, fractional shortening: echocardiogram 30 min later
Procedure: Generation of DOCA-salt mouse model: Previously, it was shown that this model leads to mild hypertension, myocardial oxidative stress, and diastolic dysfunction.^20 A gradual and mild elevation in blood pressure was induced by unilateral nephrectomy, subcutaneous implantation of a controlled release deoxycorticosterone acetate (DOCA) pellet (0.7 mg/d; Innovative Research of America, Sarasota, Fla.), and substituting drinking water with 1.05% saline. Control animals underwent a sham operation, had placebo pellet implantation, and received water without salt. Noninvasive assessment of diastolic dysfunction: Mice were anesthetized, maintained at 37° C., and studied by echocardiography (Vevo 770, VisualSonics Inc, Toronto, Canada). M-mode images in the parasternal long axis and the left ventricle (LV) short-axis views at the mid-papillary level. Measurements were averaged from three consecutive beats during expiration. LV inflow velocities (E and A waves) were interrogated by conventional pulsed-wave Doppler from the apical four-chamber view. The mitral annulus longitudinal velocities (Sm, E′, and A′) were determined by pulsed-wave tissue Doppler from the apical four-chamber view. Interpretation was done by two investigators blinded to the treatment groups. First, baseline images were acquired. Subsequently, the mice were injected with 30 mg/kg ranolazine by intraperitoneal route, followed by a second echocardiogram 30 min later. Previously, we have shown that this model leads to mild hypertension, myocardial oxidative stress, and diastolic dysfunction.^20 A gradual and mild elevation in blood pressure was induced by unilateral nephrectomy, subcutaneous implantation of a controlled release deoxycorticosterone acetate (DOCA) pellet (0.7 mg/d; Innovative Research of America, Sarasota, Fla.), and substituting drinking water with 1.05% saline. Control animals underwent a sham operation, had placebo pellet implantation, and received water without salt. Mice were anesthetized, maintained at 37° C., and studied by echocardiography (Vevo 770, VisualSonics Inc, Toronto, Canada). M-mode images in the parasternal long axis and the left ventricle (LV) short-axis views at the mid-papillary level were taken. Measurements were averaged from three consecutive beats during expiration. LV inflow velocities (E and A waves) were interrogated by conventional pulsed-wave Doppler from the apical four-chamber view. The mitral annulus longitudinal velocities (Sm, E′, and A′) were determined by pulsed-wave tissue Doppler from the apical four-chamber view. Interpretation was done by a two investigators blinded to the treatment groups. First, baseline images were acquired. Subsequently to determine the acute effect, the mice were injected with 30 mg/kg ranolazine by intraperitoneal route, followed by a second echocardiogram 30 min later.

[1] = tested on: late INa in isolated murine ventricular myocytes; assay: Voltage-clamp determination of sodium current (late INa); assay type: cell-based, mouse; parameters: late INa (integrated from 5% of peak current to 40 ms after depolarization): unit not given here; settings: 10 μmol/L ranolazine extracellular; for late INa (integrated from 5% of peak current to 40 ms after depolarization): 15 min
Procedure: Electrophysiological determination of sodium current: Voltage-clamp experiments were performed on isolated murine ventricular myocytes with an Axopatch 200B amplifier (Molecular Devices, Sunnyvale, Calif.) in whole cell configuration. Data acquisition was performed at a sampling rate of 20 kHz and filtered at 10 kHz. Data recording and analysis were done with the pClamp8 software suite (Molecular Devices) and OriginPro 8 (Originlab, Northampton, Mass.). All experiments were carried out at room temperature. Myocytes were plated on glass cover slips and were perfused with a low-sodium Tyrode solution containing the following (in mM): N-methyl-D-glucamine 100 (titrated to pH 7.4 with HCl), NaCl 15, tetramethylammonium chloride 20, CsC15, MgCl2 1, glucose 10, 4-aminopyridine 3, MnCl2 2, HEPES10, and CaCl2 1 (final pH 7.4, CsOH). Patch electrodes were pulled from capillaries purchased from Harvard Apparatus (Holliston, Mass.) using a model P-97 puller from Sutter Instruments (Novato, Calif.). Electrodes were filled with an electrode solution containing (in mM): CsCl 20, tetraethylammonium chloride 20, glutamic acid 80, NaCl 10, MgCl2 1, MgATP 5, Li2GTP 0.3, HEPES10, EGTA 10, CaCl2 0.13 (corresponding to [Ca^2+]free of <10 nM).^23 Electrode solution pH was adjusted to 7.2 with CsOH. Electrodes used for these experiments had access resistances between 1.0 and 1.5 MΩ.
Ranolazine was provided as a crystalline solid by Gilead Sciences. Prior to experiments, a DMSO stock solution was prepared and diluted (minimum 100:1) directly into the Tyrode solution used for perfusion. Cells that were treated with ranolazine were exposed to the drug for 15 min prior to beginning voltage-clamp experiments.
Voltage clamping studies: Voltage-clamp experiments were performed on isolated murine ventricular myocytes with an Axopatch 200B amplifier (Molecular Devices, Sunnyvale, Calif.) in whole cell configuration. Data acquisition was performed at a sampling rate of 20 kHz and filtered at 10 kHz. […]

patients = settings: cited from earlier work

## COc1ccccc1OCC(O)CN1CCN(CC(=O)Nc2c(C)cccc2C)CC1 (stereo not shown) [ranolazine]
DOCA-salt and sham mice; DOCA-salt mice
  E/A, early to late diastolic filling velocity: 1.62 ± 0.11
  E/E′: 31.9 ± 2.6
  E′, early septal mitral annulus velocity (TDI): 2.47 ± 0.18 cm/s
  E′/A′: 1.31 ± 0.11
  Sm, systolic septal mitral annulus velocity (TDI): 2.15 ± 0.14 cm/s
  EF, ejection fraction (Table 3): 46.9 ± 1.6%
  FS, fractional shortening: 46.9 ± 1.6%
DOCA-salt and sham mice; sham mice
  E/A, early to late diastolic filling velocity: 1.63 ± 0.07
  E/E′: 30.2 ± 1.9
  E′, early septal mitral annulus velocity (TDI): 2.67 ± 0.11 cm/s
  E′/A′: 1.16 ± 0.02
  Sm, systolic septal mitral annulus velocity (TDI): 2.31 ± 0.09 cm/s
  EF, ejection fraction (Table 3): 52.8 ± 0.8 %
  FS, fractional shortening: 52.8 ± 0.8%
[1]; DOCA-salt cardiomyocytes
  late accumulated charge: did not affect the late accumulated charge
[1]; DOCA-salt myocytes
  late INa (integrated from 5% of peak current to 40 ms after depolarization): 0.1142±0.01272 and 0.114±0.013
[1]; sham myocytes
  late INa (integrated from 5% of peak current to 40 ms after depolarization): 0.1126±0.00406 and 0.113±0.004
patients; clinically relevant doses, MERLIN TIMI 36 investigators
  proarrhythmic risk: no proarrhythmic risk
patients; human, in vivo
  relationship with the QTc interval: positive linear relationship
